In patent US9266867B2, “Piperidinyl monocarboxylic acids as S1P1 receptor agonists” (BIOPROJET, priority 2011, dated 2016):
Counter-ions that a name gives are not always drawn. Like-named read-outs stand apart in the source and are kept apart here.

Legend:
[1] = Pharmacokinetic parameters in Swiss mice after oral administration; settings: mouse, in vivo, 1 mg/kg p.o.; for Cmax: n = 4; for AUC(0-t): n = 4, read-out: AUC(0-48 h)
From the text: Moreover, preferred compounds of the present invention also display an outstanding bioavailability.

circulating lymphocytes [2] = assay: In vivo lymphopenia ED50 in mice; settings: Mus musculus, Lymphocyte, read-out: ED50 (EDG1) (In mice)
Experimental: (§1) b) Assessment of Lymphopenia
(§2) Lymphopenia was assessed in vivo. Experiments were done in non-fasted/fasted Swiss mice and/or: Sprague Dawley rats, Wistar rats, Beagle dogs, Cynomolgus monkeys. Compounds were administered orally in suspension in carboxymethyl-cellulose 0.5-1% in water (W/V). Blood was taken on anesthetized/non anaesthetized animal (4% isoflurane) and samples collected in EDTA-containing vacuum tubes from 1 h 30 to 72 hours post administration for lymphopenia measurement.
(§3) After 10 minutes stirring, cells were counted using ABC Vet haemocytometer (Scil vet animal Care) for rodent and dog or ADVIA 120 hematology analyzer for monkeys. Pharmacodynamic effect was measured by the decrease in circulating lymphocytes by test item treatment in comparison with haematological parameters of control animals or versus predosing in the same animals.

EDG1 = assay: In vivo activity versus counterpart of WO 2007/132307; settings: at 1 mg/kg
From the text: The compounds of the invention show a better in vivo activity profile over their corresponding counterparts of WO 2007/132307, as evidenced below: […]

hERG channel = hERG channel (Homo sapiens, UniProt Q12809); assay: biochemical
Experimental: c) Evaluation of Activity for hERG Blockade Liability
HEK293 cells were stably transfected with the human hERG receptor gene. Binding assays were performed using 5 μg of cell membranes expressing hERG channel resuspended in 10 mM Hepes pH 7.4, 135 mM NaCl, 60 mM DL-Aspartic Acid Potassium, 1 mM EGTA, 0.8 mM MgCl2, 10 mM (D+) Glucose, 0.01% BSA, in a final volume of 200 μL. For [^3H] […] Non specific binding was estimated in the presence of 1 μM Astemizole. The reaction was terminated by filtration through Durapore BV 1.2 μm filters pre-soaked in 3% polyethyleneimine 10 minutes at room temperature. Filters were rinsed 2 times with 250 μL of ice cold 25 mM Tris-HCl pH 7.4 buffer. The filter-bound radioactivity was measured in a liquid scintillation counter with 50 μL of scintillation fluid. [^3H]
The hERG binding investigated by use of [^3H]

EDG3 = EDG3 (Homo sapiens, UniProt Q99500); assay: 35S-GTPγS binding assay, EDG3 (S1P3); format: biochemical; settings: Table 1a
Experimental: (§4) a) 35S-GTPγS Binding Assay GTP-γ-^35S binding was performed using […]15 μg protein of cell membranes suspended in 50 mM tris-HCl pH 7.5 containing 10 mM MgCl2, 100 mM NaCl and 10 μM GDP. The radioligand was 0.025 nM [^35S] GTP-γ-S and non specific binding determined in the presence of 10 μM non-radioactive GTP-γ-S. […] The maximal stimulation elicited by S1P was taken as a reference to define full or partial agonism and calculate the intrinsic activity (i.a.) of compounds.

EDG-1 [3] = target: T1, EDG-1 (Homo sapiens, UniProt P21453); assay: 35S-GTPγS binding assay, EDG1 (S1P1); format: biochemical; design: expressed in transfected cells
Experimental: as §4

EDG5 = EDG5 (Homo sapiens, UniProt O95136); assay: 35S-GTPγS binding assay, EDG5 (S1P2); format: biochemical; settings: Table 1a
Experimental: as §4

circulating lymphocytes [4] = assay: Assessment of lymphopenia in rats; format: in vivo; settings: 0.3 mpk, 24 hrs
Experimental: as §1, §2, §3

EDG-1 [5] = target: T1, EDG-1; assay: [3H]dihydroS1P binding assay on HEK293-EDG-1 cell membranes; design: expressed in transfected cells; host or cells: HEK293; settings: transfected HEK293 cells; read-out: IC50, competition with [3H]dihydroS1P
From the text: Furthermore, we settled a binding assay on HEK293-EDG-1 cells on these membranes using [3H]dihydroS1P. By Scatchard analysis we identified one binding site for [3H]dihydroS1P. Both S1P and dihydroS1P (an S1P biometabolite) compete with [3H]dihydroS1P on transfected HEK293 cells with an 1050 closed to 5± nM and a maximum binding capacity Bmax of […] of protein.

[6] = Table 1a, read-out: EC50 (nM) EDG1

T1 sequence (P21453 whole entry): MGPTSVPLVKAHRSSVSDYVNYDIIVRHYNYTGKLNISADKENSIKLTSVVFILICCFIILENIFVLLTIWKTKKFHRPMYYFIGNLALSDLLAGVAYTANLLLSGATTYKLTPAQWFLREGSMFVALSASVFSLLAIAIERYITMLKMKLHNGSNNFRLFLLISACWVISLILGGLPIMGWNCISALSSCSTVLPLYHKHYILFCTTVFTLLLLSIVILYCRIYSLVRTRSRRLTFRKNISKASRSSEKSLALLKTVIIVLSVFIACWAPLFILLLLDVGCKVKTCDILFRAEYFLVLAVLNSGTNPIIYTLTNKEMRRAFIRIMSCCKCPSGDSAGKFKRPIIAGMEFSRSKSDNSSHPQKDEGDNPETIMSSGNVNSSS
Sequence of hERG channel (Q12809 whole entry): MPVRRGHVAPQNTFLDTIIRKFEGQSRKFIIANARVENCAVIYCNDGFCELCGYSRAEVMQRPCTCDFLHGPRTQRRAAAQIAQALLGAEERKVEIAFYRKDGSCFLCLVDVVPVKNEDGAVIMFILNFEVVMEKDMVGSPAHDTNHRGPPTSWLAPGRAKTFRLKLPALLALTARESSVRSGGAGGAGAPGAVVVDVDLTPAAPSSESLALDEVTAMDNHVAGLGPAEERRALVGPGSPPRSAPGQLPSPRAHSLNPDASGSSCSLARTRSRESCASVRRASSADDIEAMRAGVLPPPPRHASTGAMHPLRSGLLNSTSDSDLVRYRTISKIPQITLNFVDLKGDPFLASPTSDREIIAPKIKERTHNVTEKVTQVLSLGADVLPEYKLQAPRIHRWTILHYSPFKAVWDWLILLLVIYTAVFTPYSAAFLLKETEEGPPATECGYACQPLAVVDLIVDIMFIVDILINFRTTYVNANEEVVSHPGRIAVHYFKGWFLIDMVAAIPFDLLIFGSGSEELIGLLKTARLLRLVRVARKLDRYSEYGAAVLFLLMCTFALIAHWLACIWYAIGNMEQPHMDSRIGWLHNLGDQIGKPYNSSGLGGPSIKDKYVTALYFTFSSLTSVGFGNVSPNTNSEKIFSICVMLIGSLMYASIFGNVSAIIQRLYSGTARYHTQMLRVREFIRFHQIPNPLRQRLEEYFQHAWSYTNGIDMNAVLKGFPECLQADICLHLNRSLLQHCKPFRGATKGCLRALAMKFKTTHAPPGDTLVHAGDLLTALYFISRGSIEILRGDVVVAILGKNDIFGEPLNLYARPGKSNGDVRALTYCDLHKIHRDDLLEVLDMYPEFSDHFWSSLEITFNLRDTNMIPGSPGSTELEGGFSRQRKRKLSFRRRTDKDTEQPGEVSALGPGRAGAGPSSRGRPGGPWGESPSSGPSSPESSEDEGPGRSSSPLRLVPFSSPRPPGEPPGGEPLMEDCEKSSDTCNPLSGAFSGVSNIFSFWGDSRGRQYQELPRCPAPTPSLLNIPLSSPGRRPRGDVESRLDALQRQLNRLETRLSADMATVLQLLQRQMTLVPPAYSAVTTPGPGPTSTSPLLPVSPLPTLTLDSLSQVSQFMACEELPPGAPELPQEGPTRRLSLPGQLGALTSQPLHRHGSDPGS
Sequence of EDG5 (O95136 whole entry, species assumed): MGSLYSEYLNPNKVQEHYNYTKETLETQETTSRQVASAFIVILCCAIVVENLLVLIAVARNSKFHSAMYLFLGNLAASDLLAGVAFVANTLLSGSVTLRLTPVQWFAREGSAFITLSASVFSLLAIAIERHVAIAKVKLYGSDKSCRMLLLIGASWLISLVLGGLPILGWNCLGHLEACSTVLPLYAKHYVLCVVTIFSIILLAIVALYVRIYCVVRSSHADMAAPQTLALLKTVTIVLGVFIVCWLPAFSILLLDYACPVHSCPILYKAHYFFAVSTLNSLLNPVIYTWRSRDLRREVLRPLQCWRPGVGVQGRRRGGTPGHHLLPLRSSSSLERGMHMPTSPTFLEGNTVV
Sequence of EDG3 (Q99500 whole entry, species assumed): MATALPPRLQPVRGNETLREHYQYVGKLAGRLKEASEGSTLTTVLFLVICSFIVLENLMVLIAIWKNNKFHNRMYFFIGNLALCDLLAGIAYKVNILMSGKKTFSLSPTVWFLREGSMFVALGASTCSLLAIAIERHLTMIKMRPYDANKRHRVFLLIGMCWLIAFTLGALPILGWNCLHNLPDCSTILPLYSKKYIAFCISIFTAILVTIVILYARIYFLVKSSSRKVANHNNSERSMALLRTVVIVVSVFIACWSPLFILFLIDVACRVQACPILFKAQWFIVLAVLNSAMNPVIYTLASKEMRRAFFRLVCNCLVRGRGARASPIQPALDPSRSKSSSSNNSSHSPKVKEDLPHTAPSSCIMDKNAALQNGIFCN

| EC50 (EDG3) [nM] | EC50 (EDG-1 [3]; [6]) [nM] | EC50 (EDG-1 [3]; Table 1b, read-out: EDG1 EC50) [nM] | EC50 (EDG5) [nM] | Compound | ED50 (circulating lymphocytes [2]) [mg/kg] | Ki (hERG channel) [µM] | further results |
| --- | --- | --- | --- | --- | --- | --- | --- |
| – | – | – | – | CC(C)Cc1ccc(-c2nc(-c3ccc(CN4CC(C(=O)O)C4)cc3)no2)cc1 [Comparative compound 5, reference compound] | – | – | Cmax [1]: 495 ng/mL; AUC(0-t) [1]: 4530 ng·h/mL |
| – | – | – | – | Cl.O=C(O)C1(C(=O)O)CCN(Cc2ccc(-c3noc(-c4ccc(-c5ccccc5)c(F)c4)n3)cc2)CC1 [Comparative example 6, reference compound] | 0.4 | – | – |
| – | – | – | – | CC(C)Cc1ccc(-c2nc(-c3ccc(CN4CCC(C(=O)O)(C(=O)O)CC4)cc3)no2)cc1 [Comparative example 7, reference compound] | 1.8 | – | – |
| – | – | – | – | Cl.O=C(O)C1(C(=O)O)CCN(Cc2ccc(-c3noc(-c4ccc(C5CCCCC5)cc4)n3)cc2)CC1 [Comparative example 8, reference compound] | 10 | – | – |
| – | – | – | – | CC(C)Cc1ccc(-c2nc(-c3ccc(CN[C@H]4C[C@@H](C(=O)O)C4)cc3)no2)cc1 [Comparative example 9, reference compound] | – | – | ED50 (EDG1) (EDG1): Inactive at 1 mg/kg |
| > 1000 | < 1 | < 1 | > 1000 | CC1(C(=O)O)CCN(Cc2ccc(-c3noc(-c4ccc(C5CCCCC5)c(Cl)c4)n3)cc2)CC1 [Example 1, 1-{4-[5-(3-chloro-4-cyclohexylphenyl)-[1,2,4]-oxadiazol-3-yl]benzyl}-4-methylpiperidine-4-carboxylic acid] | – | > 10 | – |
| – | < 1 | < 1 | – | CC(C)Cc1ccc(-c2nc(-c3ccc(CN4CCC(C)(C(=O)O)CC4)cc3)no2)cc1Cl [Example 2, 1-{4-[5-(3-chloro-4-isobutylphenyl)-[1,2,4]-oxadiazol-3-yl]benzyl}-4-methylpiperidine-4-carboxylic acid, tert-butylamine salt] | – | > 10 | Lymphopenia in rats % lymphopenia at given dose at 24 hrs (circulating lymphocytes [4]; Sprague-Dawley female): 76% (0.3 mpk) |
| – | – | – | – | CC(C)Cc1ccc(-c2nc(-c3ccc(CN4CCC(C)(C(=O)O)CC4)cc3)no2)cc1Cl [Example 3, 1-{4-[5-(3-chloro-4-isobutylphenyl)-[1,2,4]-oxadiazol-3-yl]benzyl}-4-methylpiperidine-4-carboxylic acid] | 0.2 | – | Cmax [1]: 798 ng/mL; AUC(0-t) [1]: 13100 ng·h/mL |
| 581 | < 1 | < 1 | > 1000 | CC1(C(=O)O)CCN(Cc2ccc(-c3noc(-c4ccc(C5CCCC5)c(Cl)c4)n3)cc2)CC1 [Example 7, 1-{4-[5-(3-chloro-4-cyclopentylphenyl)-[1,2,4]-oxadiazol-3-yl]benzyl}-4-methylpiperidine-4-carboxylic acid] | – | > 10 | – |
| – | – | < 1 | – | CC1(C(=O)O)CCN(Cc2ccc(-c3noc(-c4ccc(-c5ccccc5)c(Cl)c4)n3)cc2)CC1 [Example 8, 1-{4-[5-(2-Chlorobiphenyl-4-yl)-[1,2,4]-oxadiazol-3-yl]benzyl}-4-methylpiperidine-4-carboxylic acid] | 0.1 | – | – |
| > 1000 | < 1 | < 1 | > 1000 | COCC1(C(=O)O)CCN(Cc2ccc(-c3noc(-c4ccc(C5CCCC5)c(Cl)c4)n3)cc2)CC1 [Example 9, 1-{4-[5-(3-chloro-4-cyclopentylphenyl)-[1,2,4]-oxadiazol-3-yl]benzyl}-4-methoxymethylpiperidine-4-carboxylic acid tert-butyl amine salt] | – | > 10 | – |
| 610 | < 1 | < 1 | – | COCC1(C(=O)O)CCN(Cc2ccc(-c3noc(-c4ccc(C5CCCCC5)c(Cl)c4)n3)cc2)CC1 [Example 10, 1-{4-[5-(3-chloro-4-cyclohexylphenyl)-[1,2,4]-oxadiazol-3-yl]benzyl}-4-methoxymethylpiperidine-4-carboxylic acid tert-butyl amine salt] | 0.2 | > 10 | – |
| 198 | < 1 | < 1 | > 1000 | CCC1(C(=O)O)CCN(Cc2ccc(-c3noc(-c4ccc(CC(C)C)c(Cl)c4)n3)cc2)CC1 [Example 11, 1-{4-[5-(3-chloro-4-isobutylphenyl)-[1,2,4]-oxadiazol-3-yl]benzyl}-4-ethylpiperidine-4-carboxylic acid tert-butyl amine salt] | – | > 10 | Lymphopenia in rats % lymphopenia at given dose at 24 hrs (circulating lymphocytes [4]; Wistar female): 75% (0.3 mpk) |
| > 1000 | < 1 | < 1 | > 1000 | C=CCC1(C(=O)O)CCN(Cc2ccc(-c3noc(-c4ccc(CC(C)C)c(Cl)c4)n3)cc2)CC1 [Example 12, 4-allyl-1-{4-[5-(3-chloro-4-isobutylphenyl)-[1,2,4]-oxadiazol-3-yl]benzyl}piperidine-4-carboxylic acid tert-butyl amine salt] | – | > 10 | Lymphopenia in rats % lymphopenia at given dose at 24 hrs (circulating lymphocytes [4]; Wistar female): 66% (0.3 mpk) |
| > 1000 | < 1 | < 1 | > 1000 | CCCC1(C(=O)O)CCN(Cc2ccc(-c3noc(-c4ccc(CC(C)C)c(Cl)c4)n3)cc2)CC1 [Example 13, 1-{4-[5-(3-chloro-4-isobutylphenyl)-[1,2,4]-oxadiazol-3-yl]benzyl}-4-propylpiperidine-4-carboxylic acid tert-butyl amine salt] | – | > 10 | – |
| > 1000 | < 1 | – | > 1000 | COCCOCC1(C(=O)O)CCN(Cc2ccc(-c3noc(-c4ccc(CC(C)C)c(Cl)c4)n3)cc2)CC1 [Example 14, 1-{4-[5-(3-chloro-4-isobutylphenyl)-[1,2,4]-oxadiazol-3-yl]benzyl}-4-(2-methoxyethoxymethyl)piperidine-4-carboxylic acid tert-butyl amine salt] | 0.2 | > 10 | Lymphopenia in rats % lymphopenia at given dose at 24 hrs (circulating lymphocytes [4]; Wistar male): 72% (0.3 mpk); Cmax [1]: 843 ng/mL; AUC(0-t) [1]: 9240 ng·h/mL |
| > 1000 | < 1 | < 1 | > 1000 | CC(C)Cc1ccc(-c2nc(-c3ccc(CN4CCC(CO)(C(=O)O)CC4)cc3)no2)cc1Cl [Example 15, 1-{4-[5-(3-chloro-4-isobutylphenyl)-[1,2,4]-oxadiazol-3-yl]benzyl}-4-hydroxymethylpiperidine-4-carboxylic acid tert-butyl amine salt] | – | > 10 | Lymphopenia in rats % lymphopenia at given dose at 24 hrs (circulating lymphocytes [4]; Sprague-Dawley female): 69% (0.3 mpk) |
| – | – | – | – | CCCCCCCCCCCCC/C=C/[C@@H](O)[C@@H](N)COP(=O)(O)O [Example S1P, sphingosine-1-phosphate] | – | – | IC50 (EDG-1 [5]): ~5 nM |
| – | – | – | – | CCCCCCCCCCCCCCC[C@@H](O)[C@@H](N)COP(=O)(O)O [dihydroS1P] | – | – | IC50 (EDG-1 [5]): ~5 nM |
| – | – | – | – | CC(C)Cc1ccc(-c2nc(-c3ccc(CN4CCC(C)(C(=O)O)CC4)cc3)no2)cc1 [drawing 239] | – | – | lymphopenia (EDG1): 40% at 1 mg/kg |
